Results published in patent publication US20070015823A1, “Ambruticin VS compounds” (priority 2004, published 2007).
Values after ≈ are worked out from the molar mass of the structure shown. Read-outs that look alike come from different tables or passages of the source.

Assays:
C. immitis = assay: microbe, parasite or virus in culture; type: cell-based, Coccidioides immitis; settings: for MIC: Coccidioides immitis
C. posadasii = assay: microbe, parasite or virus in culture; type: cell-based, Coccidioides posadasii; settings: for MIC: Coccidioides posadasii
[1] = test system: Trichophyton interdigitale; assay: Dermatophyte broth microdilution, NCCLS M38-A; type: cell-based
Microsporum canis = assay: Dermatophyte broth microdilution, NCCLS M38-A; type: cell-based
A. fumigatus ATCC 204305 = assay: Broth microdilution antifungal susceptibility, NCCLS M38-A; type: cell-based, Aspergillus fumigatus; settings: minimal concentration inhibiting >95% growth; average of at least two assays (except I-l and I-x)
Epidermophyton floccosum = assay: Dermatophyte broth microdilution, NCCLS M38-A; type: cell-based
[2] = test system: Trichophyton mentagrophytes; assay: Dermatophyte broth microdilution, NCCLS M38-A; type: cell-based
Blastomyces dermatitidis = assay: Broth microdilution antifungal susceptibility, NCCLS M38-A; type: cell-based
A. flavus ATCC 204304 = assay: as above; type: cell-based, Aspergillus flavus; settings: minimal concentration inhibiting >95% growth; average of at least two assays (except I-l and I-x)
Trichophyton rubrum = assay: Dermatophyte broth microdilution, NCCLS M38-A; type: cell-based
Microsporum gypseum = assay: Dermatophyte broth microdilution, NCCLS M38-A; type: cell-based
Histoplasma capsulatum = type: cell-based
Cryptococcus neoformans = assay: Broth microdilution antifungal susceptibility, NCCLS M38-A; settings: 50% growth inhibition, range = minimum and maximum of multiple assays; for MIC C. neoformans 97-14: strain 97-14; for MIC C. neoformans 11239: strain 11239; for MIC C. neoformans 11240: strain 11240
S. apiospermum = assay: as above; type: cell-based, Scedosporium apiospermum
Fusarium solani = assay: as above; type: cell-based; settings: strain 96-1; 50% growth inhibition; range = minimum and maximum of multiple assays
Candida albicans = settings: 50% growth inhibition, range = minimum and maximum of multiple assays; for MIC C. albicans 24433: strain 24433; for MIC C. albicans 90028: strain 90028

OC(Cn1cncn1)(Cn1cncn1)c1ccc(F)cc1F [Fluconazole]
MIC (C. immitis; read-out: MIC C. immitis RMS 2281): 16 µg/mL (≈ 52.2 µM) | MIC (C. immitis; read-out: MIC C. immitis RS): 16 µg/mL (≈ 52.2 µM) | MIC (C. immitis; read-out: MIC C. immitis S46): 16 µg/mL (≈ 52.2 µM) | MIC (C. posadasii; read-out: MIC C. posadasii C735): 16 µg/mL (≈ 52.2 µM) | MIC (C. posadasii; read-out: MIC C. posadasii RMSCC 2127): 16 µg/mL (≈ 52.2 µM) | MIC (C. posadasii; read-out: MIC C. posadasii Silveria): 4 µg/mL (≈ 13.1 µM)

CC[C@H]1O[C@@H](/C(C)=C/[C@H](C)/C=C/[C@H]2[C@@H](C)[C@@H]2/C=C/[C@@H]2O[C@H](CC(=O)O)C[C@H](NC3CCCC3)[C@H]2O)CC=C1C [I-d, (5S,6R)-5-(cyclopentylamino)-6-hydroxypolyangioic acid]
MIC0 Ti [1]: 2.51 µg/mL | MIC0 Mc (Microsporum canis): 2.82 µg/mL | MIC0 A. fumigatus ATCC 204305 (A. fumigatus ATCC 204305): 8.0 µg/mL | MIC0 Ef (Epidermophyton floccosum): 4 µg/mL | MIC0 Tm [2]: 8 µg/mL | MIC B. dermatitidis Gu (Blastomyces dermatitidis): >12.5 µg/mL | MIC B. dermatitidis Kr (Blastomyces dermatitidis): >12.5 µg/mL | MIC B. dermatitidis V (Blastomyces dermatitidis): >12.5 µg/mL | MIC0 A. flavus ATCC 204304 (A. flavus ATCC 204304): 8.0 µg/mL | MIC0 Tr (Trichophyton rubrum): 3.17 µg/mL | MIC0 Mg (Microsporum gypseum): 2.51 µg/mL | MIC H. capsulatum G217B (Histoplasma capsulatum): <0.19 µg/mL | MIC H. capsulatum GS20 (Histoplasma capsulatum): <0.19 µg/mL

CCOC(=O)O[C@H]1[C@H](/C=C/[C@H]2[C@H](C)[C@@H]2/C=C/[C@@H](C)/C=C(\C)[C@H]2CC=C(C)[C@@H](CC)O2)O[C@H](CC(N)=O)C[C@@H]1N(C)C [I-ii, (5S,6R)-5-(dimethylamino)-6-ethoxycarbonyloxy-polyangiamide]
MIC C. immitis RMS 2281 (C. immitis): 0.125 µg/mL (≈ 0.218 µM) | MIC C. immitis RS (C. immitis): 0.25 µg/mL (≈ 0.436 µM) | MIC C. immitis S46 (C. immitis): 0.25 µg/mL (≈ 0.436 µM) | MIC0 Ti [1]: 1.58 µg/mL | MIC0 Mc (Microsporum canis): 0.5 µg/mL | MIC0 A. fumigatus ATCC 204305 (A. fumigatus ATCC 204305): 1 µg/mL | MIC0 Ef (Epidermophyton floccosum): 1 µg/mL | MIC0 Tm [2]: 1.41 µg/mL | MIC C. posadasii C735 (C. posadasii): 0.5 µg/mL (≈ 0.873 µM) | MIC C. posadasii RMSCC 2127 (C. posadasii): 0.25 µg/mL (≈ 0.436 µM) | MIC C. posadasii Silveria (C. posadasii): 0.5 µg/mL (≈ 0.873 µM) | MIC0 A. flavus ATCC 204304 (A. flavus ATCC 204304): 1 µg/mL | MIC0 Tr (Trichophyton rubrum): 1.58 µg/mL | MIC0 Mg (Microsporum gypseum): 1 µg/mL | MIC C. neoformans 97-14 (Cryptococcus neoformans): 0.5 to 1 µg/mL | MIC C. neoformans 11239 (Cryptococcus neoformans): 0.25 µg/mL (≈ 0.436 µM) | MIC C. neoformans 11240 (Cryptococcus neoformans): 0.25 to 0.5 µg/mL

CCN[C@H]1C[C@@H](CC(=O)O)O[C@@H](/C=C/[C@H]2[C@H](C)[C@@H]2/C=C/[C@@H](C)/C=C(\C)[C@H]2CC=C(C)[C@@H](CC)O2)[C@@H]1O [I-mm, (5S,6R)-5-(ethylamino)-6-hydroxypolyangioic acid]
MIC0 Ti [1]: 0.79 µg/mL | MIC0 Mc (Microsporum canis): 0.7 µg/mL | MIC0 A. fumigatus ATCC 204305 (A. fumigatus ATCC 204305): 1.28 µg/mL | MIC0 Ef (Epidermophyton floccosum): 1.41 µg/mL | MIC0 Tm [2]: 2.82 µg/mL | MIC B. dermatitidis Gu (Blastomyces dermatitidis): >12.5 µg/mL | MIC B. dermatitidis Kr (Blastomyces dermatitidis): >12.5 µg/mL | MIC B. dermatitidis V (Blastomyces dermatitidis): >12.5 µg/mL | MIC0 A. flavus ATCC 204304 (A. flavus ATCC 204304): 0.93 µg/mL | MIC0 Tr (Trichophyton rubrum): 1.25 µg/mL | MIC0 Mg (Microsporum gypseum): 0.79 µg/mL | MIC C. neoformans 97-14 (Cryptococcus neoformans): 0.125 µg/mL (≈ 0.249 µM) | MIC C. neoformans 11239 (Cryptococcus neoformans): 0.25 µg/mL (≈ 0.498 µM) | MIC C. neoformans 11240 (Cryptococcus neoformans): 0.0625 µg/mL (≈ 0.125 µM) | MIC H. capsulatum G217B (Histoplasma capsulatum): <0.19 µg/mL | MIC H. capsulatum GS20 (Histoplasma capsulatum): <0.19 µg/mL

CCCN(C)[C@H]1C[C@@H](CC(=O)O)O[C@@H](/C=C/[C@H]2[C@H](C)[C@@H]2/C=C/[C@@H](C)/C=C(\C)[C@H]2CC=C(C)[C@@H](CC)O2)[C@@H]1O [I-t, (5S,6R)-5-(N-propyl-methylamino)-6-hydroxypolyangioic acid]
MIC0 Ti [1]: 1.25 µg/mL | MIC0 Mc (Microsporum canis): 2.82 µg/mL | MIC0 A. fumigatus ATCC 204305 (A. fumigatus ATCC 204305): 2.25 µg/mL | MIC0 Ef (Epidermophyton floccosum): 1.41 µg/mL | MIC0 Tm [2]: 11.31 µg/mL | MIC B. dermatitidis Gu (Blastomyces dermatitidis): >12.5 µg/mL | MIC B. dermatitidis Kr (Blastomyces dermatitidis): >12.5 µg/mL | MIC B. dermatitidis V (Blastomyces dermatitidis): >12.5 µg/mL | MIC0 A. flavus ATCC 204304 (A. flavus ATCC 204304): 2.25 µg/mL | MIC0 Tr (Trichophyton rubrum): 1.58 µg/mL | MIC0 Mg (Microsporum gypseum): 2 µg/mL | MIC C. neoformans 97-14 (Cryptococcus neoformans): 0.5 µg/mL (≈ 0.944 µM) | MIC C. neoformans 11239 (Cryptococcus neoformans): 1 µg/mL (≈ 1.89 µM) | MIC C. neoformans 11240 (Cryptococcus neoformans): 0.5 µg/mL (≈ 0.944 µM) | MIC H. capsulatum G217B (Histoplasma capsulatum): <0.19 µg/mL | MIC H. capsulatum GS20 (Histoplasma capsulatum): <0.19 µg/mL

CCCCN(C)[C@H]1C[C@@H](CC(=O)O)O[C@@H](/C=C/[C@H]2[C@H](C)[C@@H]2/C=C/[C@@H](C)/C=C(\C)[C@H]2CC=C(C)[C@@H](CC)O2)[C@@H]1O [I-u, (5S,6R)-5-(N-butyl-methylamino)-6-hydroxypolyangioic acid]
MIC0 Ti [1]: 3.17 µg/mL | MIC0 Mc (Microsporum canis): 5.65 µg/mL | MIC0 A. fumigatus ATCC 204305 (A. fumigatus ATCC 204305): 4.25 µg/mL | MIC0 Ef (Epidermophyton floccosum): 2.82 µg/mL | MIC0 Tm [2]: 11.31 µg/mL | MIC B. dermatitidis Gu (Blastomyces dermatitidis): >12.5 µg/mL | MIC B. dermatitidis Kr (Blastomyces dermatitidis): >12.5 µg/mL | MIC B. dermatitidis V (Blastomyces dermatitidis): >12.5 µg/mL | MIC0 A. flavus ATCC 204304 (A. flavus ATCC 204304): 4.5 µg/mL | MIC0 Tr (Trichophyton rubrum): 3.17 µg/mL | MIC0 Mg (Microsporum gypseum): 4 µg/mL | MIC C. neoformans 97-14 (Cryptococcus neoformans): 1 µg/mL (≈ 1.84 µM) | MIC C. neoformans 11239 (Cryptococcus neoformans): 2 µg/mL (≈ 3.68 µM) | MIC C. neoformans 11240 (Cryptococcus neoformans): 2 µg/mL (≈ 3.68 µM) | MIC H. capsulatum G217B (Histoplasma capsulatum): <0.19 µg/mL | MIC H. capsulatum GS20 (Histoplasma capsulatum): <0.19 µg/mL

CC[C@H]1O[C@@H](/C(C)=C/[C@H](C)/C=C/[C@H]2[C@@H](C)[C@@H]2/C=C/[C@@H]2O[C@H](CC(=O)O)C[C@H](N(C)Cc3cccnc3)[C@H]2O)CC=C1C [I-w, (5S,6R)-5-(N-(3-pyridyl)methyl-methylamino)-6-hydroxypolyangioic acid]
MIC0 A. fumigatus ATCC 204305 (A. fumigatus ATCC 204305): 4.25 µg/mL | MIC S. apiospermum 94-54 (S. apiospermum): >16 µg/mL | MIC S. apiospermum 98-38 (S. apiospermum): >16 µg/mL | MIC S. apiospermum 98-89 (S. apiospermum): 2 µg/mL (≈ 3.46 µM) | MIC0 A. flavus ATCC 204304 (A. flavus ATCC 204304): 4 µg/mL | MIC F. solani 96-1 (Fusarium solani): >16 µg/mL | MIC C. neoformans 97-14 (Cryptococcus neoformans): 1 µg/mL (≈ 1.73 µM) | MIC C. neoformans 11239 (Cryptococcus neoformans): 0.5 µg/mL (≈ 0.864 µM) | MIC C. neoformans 11240 (Cryptococcus neoformans): 0.5 to 1 µg/mL | MIC C. albicans 24433 (Candida albicans): >32 µg/mL | MIC C. albicans 90028 (Candida albicans): >32 µg/mL

(5S,6R)-5-(N-(4-imidazolyl)methyl-methylamino)-6-hydroxypolyangioic acid [I-h]
MIC0 A. fumigatus ATCC 204305 (A. fumigatus ATCC 204305): 2.1 µg/mL | MIC S. apiospermum 94-54 (S. apiospermum): >16 µg/mL | MIC S. apiospermum 98-38 (S. apiospermum): >16 µg/mL | MIC S. apiospermum 98-89 (S. apiospermum): 0.125 to 0.25 µg/mL | MIC0 A. flavus ATCC 204304 (A. flavus ATCC 204304): 1.0 µg/mL | MIC F. solani 96-1 (Fusarium solani): >16 µg/mL | MIC C. neoformans 97-14 (Cryptococcus neoformans): 0.5 µg/mL | MIC C. neoformans 11239 (Cryptococcus neoformans): 0.25 µg/mL | MIC C. neoformans 11240 (Cryptococcus neoformans): 0.25 µg/mL | MIC C. albicans 24433 (Candida albicans): >32 µg/mL | MIC C. albicans 90028 (Candida albicans): >32 µg/mL
